According to patent US20160011208A1, “ASSAY FOR POLYPEPTIDE AGGREGATION USING MICRODROPLETS” (priority 2013, published 2016):

Biological target: T1, Aβ1-42 (Homo sapiens, UniProt P05067)
T1 construct: Scyllo-inositol and amyloid monomers (Aβ1-42) were compartmentalised in droplets
Test: Inhibition of Aβ1-42 aggregation in microdroplet gel beads, flow cytometric analysis
Format: biochemical
Settings: HF488Aβ1-42 with scyllo-inositol in droplets, amyloid:inhibitor ratios 1:1 or 1:20, versus control without inhibitor; flow cytometry (FIG. 12)
Experimental: FIG. 12: Inhibition of aggregation by scyllo-inositol. Scyllo-inositol and amyloid monomers (Aβ1-42) were compartmentalised in droplets and incubated at ratios of amyloid:inhibitor of 1:1 (central bar at each time point) or 1:20 (right-hand bar at each time point), respectively. The left-hand bar at each time point represents a control with no scyllo-inositol.
A microfluidic droplet generator with a flow focusing geometry was used to generate water-in-oil droplets. The contents of the droplets were determined by the content of the supply stream: peptide buffer solution was mixed with agarose gel solution and trapped by HFE7500 oil containing a surfactant, e.g. 0.5% (w/w) fluorous tri-block copolymers. […]
Since the processed gel beads were stored in aqueous buffer solution, they could be tested via flow cytometry or FACS, a technique requiring aqueous carrier fluid, in order to assess the aggregation process and compare different intensity of aggregates inside agarose beads. Incubated and washed agarose beads with Hilyte488-labelled Aβ1-40 aggregates were sent to FACS and the beads with fluorescent aggregates were counted. […] The percentage of beads containing aggregates was calculated using the program Summit. […]

T1 sequence (P05067 672-713 limits assumed): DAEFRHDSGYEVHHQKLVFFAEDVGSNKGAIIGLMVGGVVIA

Q: Which “inhibition of aggregation of Aβ1-42 monomers in gel beads” value does the source give for `O[C@H]1[C@H](O)[C@@H](O)[C@H](O)[C@@H](O)[C@@H]1O` [scyllo-inositol] here?
A: inhibition of aggregation by scyllo-inositol was detected
